Laboratory results from US10308605B2, “Proton pump inhibitors” (Takeda Pharmaceutical Company Limited, priority 2004, dated 2019).
Structures can show the parent of a compound that is named as a salt. Where two headings read alike, the source gives them in different places.

Biological target: proton, potassium-adenosine triphosphatase (H^+,K^+-ATPase) (Sus scrofa (Pig), UniProt P19156)
Test: Proton potassium-adenosine triphosphatase (H+,K+-ATPase) inhibitory activity test
Assay type: biochemical
Conditions: swine gastric mucous membrane microsomal fraction, pH 6.5, 37° C.
Description: Proton Potassium-adenosine Triphosphatase (H^+,K^+-ATPase) Inhibitory Activity Test
According to the method [Biochem. Biophys. Acta., 728, 31 (1983)] of Wallmark et al., a gastric mucous membrane microsomal fraction was prepared from the stomach of swine. First, the stomach was removed, washed with tap water, immersed in 3 mol/L brine, and the surface of the mucous membrane was wiped with a paper towel. The gastric mucous membrane was detached, chopped, and homogenized in a 0.25 mol/L saccharose solution (pH 6.8) containing 1 mmol/L EDTA and 10 mmol/L tris-hydrochloric acid using polytron (Kinematica). The obtained homogenate was centrifuged at 20,000×g for 30 min and the supernatant was centrifuged at 100,000×g for 90 min. The precipitate was suspended in 0.25 mol/L saccharose solution, superimposed on a 0.25 mol/L saccharose solution containing 7.5% Ficoll, and centrifuged at 100,000×g for 5 hr. The fraction containing the interface between the both layers was recovered, and centrifugally washed with 0.25 mol/L saccharose solution.
The obtained microsomal fraction was used as a proton, potassium-adenosine triphosphatase standard product.
To 40 μL of a 50 mmol/L HEPES-tris buffer (5 mmol/L magnesium chloride, 10 mmol/L potassium chloride, 10 μmol/L valinomycin, pH=6.5) containing 2.5 μg/mL (based on the protein concentration) of the enzyme standard product was added a test compound (5 μL) dissolved in a 10% aqueous dimethyl sulfoxide solution, and the mixture was incubated at 37° C. for 30 min. The enzyme reaction was started by adding 5 μL of a 2 mmol/L adenosine triphosphate tris salt solution (50 mmol/L HEPES-tris buffer (5 mmol/L magnesium chloride, pH 6.5)). The enzyme reaction was carried out at 37° C. for 20 min, and 15 μL of a malachite green solution (0.12% malachite green solution in sulfuric acid (2.5 mol/L), 7.5% ammonium molybdate and 11% Tween 20 were mixed at a ratio of 100:25:2) was added to quench the reaction. After allowing to stand at room temperature for 15 min, the resulting reaction product of inorganic phosphorus with malachite green was colorimetrically determined at a wavelength of 610 nm. In addition, the amount of the inorganic phosphoric acid in the reaction solution free of potassium chloride was measured in the same manner, which was subtracted from the inorganic phosphoric acid amount in the presence of potassium chloride to determine the proton, potassium-adenosine triphosphatase activity. The inhibitory rate (%) was determined from the activity value of the control and the activity values of various concentrations of the test compound, and the 50% inhibitory concentration (IC50) of the proton, potassium-adenosine triphosphatase was determined.

[1] = read-out: H^+/K^+-ATPase inhibitory activity (IC50)

proton, potassium-adenosine triphosphatase (H^+,K^+-ATPase), sequence (P19156 2-1034): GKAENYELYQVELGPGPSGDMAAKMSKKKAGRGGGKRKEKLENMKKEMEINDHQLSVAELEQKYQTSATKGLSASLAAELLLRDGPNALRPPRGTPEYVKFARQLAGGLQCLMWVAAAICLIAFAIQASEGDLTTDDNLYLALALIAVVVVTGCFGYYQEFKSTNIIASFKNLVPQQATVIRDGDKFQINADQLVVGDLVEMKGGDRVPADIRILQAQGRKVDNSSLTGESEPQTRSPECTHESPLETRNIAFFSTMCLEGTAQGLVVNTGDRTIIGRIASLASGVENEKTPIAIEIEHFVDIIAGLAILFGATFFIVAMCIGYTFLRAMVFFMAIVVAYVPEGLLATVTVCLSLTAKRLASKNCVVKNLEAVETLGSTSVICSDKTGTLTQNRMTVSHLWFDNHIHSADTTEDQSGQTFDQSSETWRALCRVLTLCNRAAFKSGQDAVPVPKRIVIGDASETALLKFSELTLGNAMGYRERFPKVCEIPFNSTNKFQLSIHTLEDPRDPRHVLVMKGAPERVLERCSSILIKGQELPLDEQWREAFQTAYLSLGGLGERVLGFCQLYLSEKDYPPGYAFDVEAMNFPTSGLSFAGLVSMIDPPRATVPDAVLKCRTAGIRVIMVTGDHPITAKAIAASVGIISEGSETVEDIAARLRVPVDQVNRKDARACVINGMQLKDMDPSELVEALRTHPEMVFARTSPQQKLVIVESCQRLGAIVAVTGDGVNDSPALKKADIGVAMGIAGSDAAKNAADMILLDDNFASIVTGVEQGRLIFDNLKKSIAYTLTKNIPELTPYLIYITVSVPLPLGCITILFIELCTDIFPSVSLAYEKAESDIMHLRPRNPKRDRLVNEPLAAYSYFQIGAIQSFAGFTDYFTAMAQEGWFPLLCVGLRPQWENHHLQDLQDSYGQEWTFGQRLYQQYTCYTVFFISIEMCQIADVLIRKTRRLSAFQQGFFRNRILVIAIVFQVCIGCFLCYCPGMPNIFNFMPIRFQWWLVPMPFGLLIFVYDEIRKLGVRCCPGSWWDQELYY
proton, potassium-adenosine triphosphatase (H^+,K^+-ATPase), sequence (P18434 whole entry partner): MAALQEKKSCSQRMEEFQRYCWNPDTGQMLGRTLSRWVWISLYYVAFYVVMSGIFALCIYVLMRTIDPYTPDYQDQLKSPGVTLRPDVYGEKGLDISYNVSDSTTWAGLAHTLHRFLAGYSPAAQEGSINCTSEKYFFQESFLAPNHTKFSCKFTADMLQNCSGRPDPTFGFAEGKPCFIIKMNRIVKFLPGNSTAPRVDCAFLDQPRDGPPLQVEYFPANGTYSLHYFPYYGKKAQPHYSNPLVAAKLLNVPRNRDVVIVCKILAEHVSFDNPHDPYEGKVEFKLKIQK

SMILES	IC50 [1] [µM]	IC50 (read-out: IC50) [µM]
CNCc1cc(-c2ccccc2F)n(S(=O)(=O)c2ccccc2F)c1 [Example 165, 1-{5-(2-Fluorophenyl)-1-[(2-fluorophenyl)sulfonyl]-1H-pyrrol-3-yl}-N-methylmethanamine hydrochloride]	0.009	
CNCc1cc(-c2ccccc2)n(S(=O)(=O)c2ccc(F)cc2C)c1 [Example 11, 1-{1-[(4-Fluoro-2-methylphenyl)sulfonyl]-5-phenyl-1H-pyrrol-3-yl}-N-methylmethanamine hydrochloride]		0.051
CNCc1cc(-c2ccccc2)n(S(=O)(=O)c2cccc(C(=O)NC)c2)c1 [Example 204, N-Methyl-3-({4-[(methylamino)methyl]-2-phenyl-1H-pyrrol-1-yl}sulfonyl)benzamide hydrochloride]	0.086	
CN(C)Cc1cc(-c2ccccc2)n(S(=O)(=O)c2ccc(C(F)(F)F)cc2)c1 [Example 12, N,N-Dimethyl-1-(5-phenyl-1-{[4-(trifluoromethyl)phenyl]sulfonyl}-1H-pyrrol-3-yl)methanamine hydrochloride]		0.71
CNCc1cc(-c2ccsc2)n(S(=O)(=O)c2ccccc2)c1 [Example 30, N-methyl-1-[1-(phenylsulfonyl)-5-(3-thienyl)-1H-pyrrol-3-yl]methanamine hydrochloride]	0.0042	
CNCc1cc(-c2ccccc2C)n(S(=O)(=O)c2cccnc2)c1 [Example 220, N-Methyl-1-[5-(2-methylphenyl)-1-(pyridin-3-ylsulfonyl)-1H-pyrrol-3-yl]methanamine dihydrochloride]	0.036	
CNCc1cc(-c2ccccc2F)n(S(=O)(=O)c2cccc(S(C)(=O)=O)c2)c1 [Example 161, 1-[5-(2-Fluorophenyl)-1-{[3-(methylsulfonyl)phenyl]sulfonyl}-1H-pyrrol-3-yl]-N-methylmethanamine hydrochloride]	0.062	
CNCc1cc(-c2ccccc2)n(S(=O)(=O)c2cccc(S(C)(=O)=O)c2)c1 [Example 140, N-Methyl-1-(1-{[3-(methylsulfonyl)phenyl]sulfonyl}-5-phenyl-1H-pyrrol-3-yl)methanamine hydrochloride]	0.078	
CNCc1cc(-c2ccccc2)n(S(=O)(=O)c2cc3ccccc3s2)c1 [Example 152, 1-[1-(1-Benzothien-2-ylsulfonyl)-5-phenyl-1H-pyrrol-3-yl]-N-methylmethanamine hydrochloride]	0.033	
CNCc1cc(-c2cccc(C)c2)n(S(=O)(=O)c2ccc(C)cc2)c1 [Example 7, N-Methyl-1-{5-(3-methylphenyl)-1-[(4-methylphenyl)sulfonyl]-1H-pyrrol-3-yl}methanamine hydrochloride]		0.091
CNCc1cc(-c2ccccc2)n(S(=O)(=O)c2ccsc2)c1 [Example 43, N-Methyl-1-[5-phenyl-1-(3-thienylsulfonyl)-1H-pyrrol-3-yl]methanamine hydrochloride]	0.051	
